In US20250382346A1, “NEURONAL PROMOTERS AND USES THEREOF” (priority 2023, published 2025):

Molecular target: T1, rM3Ds (Rattus norvegicus, UniProt P08483, A177S/A238G/A489L/DEL261-437/DEL441-478/E258S/I253V/I483M/INS256[…]/K178L/K182A/K255R/K484R/K486H/L173F/L482A/M480V/R171S/R176Q/R179M/S481M/T174R/T181R/T257A/Y148C)
T1 sequence (P08483 with tags, fused parts or gaps Y148C/R171S/L173F/T174R/R176Q/A177S/K178L/R179M/T181R/K182A/A238G/I253V/K255R/INS256[…]/T257A/E258S/DEL261-437/DEL441-478/M480V/S481M/L482A/I483M/K484R/K486H/A489L): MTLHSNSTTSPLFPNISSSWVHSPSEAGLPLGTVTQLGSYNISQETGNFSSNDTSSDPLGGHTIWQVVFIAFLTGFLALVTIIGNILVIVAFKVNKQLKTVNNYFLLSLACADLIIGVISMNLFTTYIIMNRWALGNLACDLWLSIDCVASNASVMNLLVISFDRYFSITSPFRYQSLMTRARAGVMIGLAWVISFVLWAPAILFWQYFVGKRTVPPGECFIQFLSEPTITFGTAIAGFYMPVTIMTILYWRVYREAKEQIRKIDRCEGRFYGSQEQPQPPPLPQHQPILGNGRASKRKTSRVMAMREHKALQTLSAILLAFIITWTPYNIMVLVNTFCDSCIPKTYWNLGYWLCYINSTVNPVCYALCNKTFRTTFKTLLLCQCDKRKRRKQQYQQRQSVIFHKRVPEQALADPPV
Test: Chemogenetic manipulation of BG direct pathway in mice with rM3Ds: rotations, nigral c-Fos
Format: in vivo
Set-up: 2A-EYFP (C); expressed in transfected cells; host or cells: neurons (striatal D1-MSNs) of mice or cynomolgus macaques, transduced in vivo by nigral AAV8R12-G88P7-rM3Ds-2A-EYFP
Conditions: for contraversive rotations (FIG. 7A), mean±SEM: AAV8R12-G88P7-rM3Ds-2A-EYFP nigral, n=8; for rotation behavior (FIG. 7C), mean±SEM: control vector AAV8R12-G88P7-EYFP, n=5, no effect
Experimental: Mice were anesthetized with sodium pentobarbital (Nembutal; 80 mg/kg, i.p.), and then placed into a stereotaxic device (KOPF). Eye cream was applied on both corneas to avoid dehydration. The skull above the targeted areas was thinned with a dental drill and carefully removed. Injections were conducted with a 10 μL syringe connected to a 33-Gauge needle (Neuros; Hamilton), using a microsyringe pump (Legato 130, KD Scientific). A total volume of 200 nL virus was injected into the SNr at a speed of 20 nL/min. The coordinates for the SNr were 3.4 mm posterior, 1.3 mm lateral, 4.8 mm ventral to the bregma.
Mice that were used in the behavioral experiments were then implanted with guide cannulas (KOPF) unilaterally aiming at the dorsomedial striatum (0.5 mm anterior, 1.5 mm lateral, 3.5 mm ventral to the bregma). The cannulas were fixed to the skull with dental cement. Stainless steel obturators were inserted into the guide cannulas and were replaced every other day to maintain the patency until infusions were made. Mice were allowed to recover from the surgery for at least 3 weeks before further studies.
To further optimize the system, an alternative chemogenetic effector that would potentially allow specific manipulation of the direct pathway compatible with systemic CNO infusions needed to be identified. […]. A different chemogenetic effector, rM3Ds, which uses cAMP as the second messenger and can effectively activate striatal MSNs, was used to avoid the activation of SNr neurons upon systemic CNO administration.
Together, these findings confirm that the approach we developed is a durable solution for selective activity modulation of D1-MSNs and the BG direct pathway.
Mice were individually handled for 10-20 seconds per day for at least 5 days to habituate them to the experimenter. The open field test was conducted in a test apparatus (50 cm×50 cm×50 cm) with an HD digital camera (Sony) positioned above the arena. On day one, mice were habituated to the apparatus for 10 minutes. On day 2, mice were administrated saline (0.1 mL i.p. or 200 nL intracranially [i.e.] through the guide cannulas). On day 3, mice were administrated with Clozapine-N-oxide (CNO, Hello Bio, HB1807; 0.3 mg/kg i.p. or 200 nL at 100 μM i.e.). All behavioral tests were conducted 30 minutes after injection. During the test, mice were allowed to freely explore the apparatus for 10 minutes. The behavioral data were analyzed with ANY-maze software (Stoelting Co.).

## C[N+]1([O-])CCN(C2=Nc3cc(Cl)ccc3Nc3ccccc32)CC1 [CNO, Clozapine-N-oxide]
CNO i.p., saline 45.95±4.972
  contraversive rotations (FIG. 7A), mean±SEM: 80.05±5.168
CNO intracranial, saline 58.31±4.742
  contraversive rotations (FIG. 7A), mean±SEM: 80.77±4.187
AAV8R12-G88P7-rM3Ds-2A-EYFP, intraperitoneal and intracranial CNO
  c-Fos+ cells in the SNr: did not increase the number of c-Fos+ cells in the SNr
CNO i.p., saline 48.68±7.203
  rotation behavior (FIG. 7C), mean±SEM: 46.88±7.497
CNO intracranial, saline 41.11±12.73
  rotation behavior (FIG. 7C), mean±SEM: 34.55±7.536
